Assay results from patent US5824670A, “17-deoxycorticosteroid-21-[O]carboxylic esters, processes for their preparation and pharmaceuticals containing these compounds” (priority 1994, dated 1998).

What was measured:
[1] = test system: allergic inflammation of the delayed type (oxazolone ear edema); experiment: Local antiinflammatory effect in oxazolone ear edema in mice following epicutaneous application; type: in vivo, male NMRI mice; conditions: for inflammatory edematous swelling, difference between right and left auricle weights (x ± s) / Inhibition in %: 24 h; for inflammatory edematous swelling, difference between right and left auricle weights (x ± s): mice; for Inhibition in %: vs control
From the text: 1. Local antiinflammatory effect in oxazolone ear edema in mice following epicutaneous application.
The method described by Evans, D. P. et al., Br. J. Pharmacol 43, 403 (1971) was used. In mice, 4-ethoxy-methylene-2-phenyl-2-oxazoline (oxazolone) produces an allergic inflammation of the delayed type which can be inhibited by corticosteroids. The experimental animals employed are male NMRI mice of 25 g body weight which are divided into groups of 10 animals each. The animals were sensitized by applying 0.1 ml of a 2% solution of oxazolone in acetone to the shaven skin of the abdomen. On the 9th day following this sensitization, the allergic inflammation was triggered by applying 10 μl of a 2% solution of oxazolone/acetone to the inner side of the right ear auricle (control group). In the treated groups, the abovementioned solution contained the test preparations. 24 hours after applying the solutions, the animals were killed with CO2. A circular sample, measuring 8 mm, was punched out from each of the treated right ear auricle and the untreated left ear auricle. The samples were weighed immediately, with the difference between the right and left auricle weights representing the measure of the degree of inflammation. This inflammatory edematous swelling, in mg, was set to equal 100% in the control group, and the inflammation-inhibiting effect of the preparations is given as the percentage inhibition as compared with the control.

carrageenin paw edema = experiment: Systemic activity following subcutaneous administration in the carrageenin paw edema test in rats; type: in vivo, Male Sprague-Dawley rats; conditions: for Increase at 3 h (paw volume) / Increase at 6 h (paw volume): x ± s, * = p<0.05 Dunnett
Method: 2a. Testing for systemic activity following subcutaneous administration in the carrageenin paw edema test in rats The method was described by Winter, C. A. et al. in Proc. Soc. exp. Biol. (N.Y.), 111, 544, (1962). Male Sprague-Dawley rats of approximately 200 g body weight, and in group sizes of n=5, were given the substances subcutaneously (0.2 ml/100 g of body weight, dissolved in sesame oil). Controls were given sesame oil alone. 15 minutes later, 0.1 ml of a 0.5% solution of carrageenin was injected into the left hind paw. Prior to this, and at 3 h and 6 h afterwards, the paw volume was measured (ml) and the increase in swelling was ascertained by comparing with the preliminary value. The numbers are mean value and standard deviation (x±s). Statistical significance was assessed using the Dunnett test.

[2] = test system: Gluconeogenesis (liver glycogen and glucose); experiment: Systemic effect: Gluconeogenesis in rats; type: in vivo, Male Sprague-Dawley rats
Method: 2b. Testing for systemic effect: Gluconeogenesis in rats
Male Sprague-Dawley rats of approximately 140 g in weight were adrenalectomized. They were given an 0.9% solution of sodium chloride as their drinking water. 48 h later, the animals' feed was removed for 24 h. On the day of the experiment (3 days after adrenalectomy and 1 day of starvation), the experimental preparations were administered s.c. (2 ml/kg in sesame oil, with controls only receiving this vehicle). The animals were decapitated 6 h later, with 1 g of liver being removed in each case. The sample was taken up in 5 ml of 0.6M perchloric acid. Following homogenization and centrifugation, glucose was determined in the supernatant. The precipitate (glycogen) was hydrolyzed enzymically with amyloglucosidase, and glucose was also determined in the resulting hydrolysate (hexokinase test kit, from Boehringer Mannheim).

| Structure (SMILES) | inflammatory edematous swelling, difference between right and left auricle weights (x ± s) ([1]; 0.03 mg/ml epicutaneous) [mg] | Inhibition in % ([1]; 0.03 mg/ml epicutaneous) [%] | inflammatory edematous swelling, difference between right and left auricle weights (x ± s) ([1]; 0.1 mg/ml epicutaneous) [mg] | Inhibition in % ([1]; 0.1 mg/ml epicutaneous) [%] | inflammatory edematous swelling, difference between right and left auricle weights (x ± s) ([1]; 0.3 mg/ml epicutaneous) [mg] | Inhibition in % ([1]; 0.3 mg/ml epicutaneous) [%] | local antiinflammatory effect (in words) ([1]; mouse, in vivo) | effect on paw edema (in words) (carrageenin paw edema; 0.1 mg/kg s.c.) | Increase at 3 h (paw volume) (carrageenin paw edema; 0.1 mg/kg s.c.) [mL] | Increase at 6 h (paw volume) (carrageenin paw edema; 0.1 mg/kg s.c.) [mL] | effect on paw edema (in words) (carrageenin paw edema; 0.3 mg/kg s.c.) | Increase at 3 h (paw volume) (carrageenin paw edema; 0.3 mg/kg s.c.) [mL] | Increase at 6 h (paw volume) (carrageenin paw edema; 0.3 mg/kg s.c.) [mL] | advantage (factor) over deoxymethasone regarding gluconeogenic effect ([2]; rat, in vivo) | gluconeogenic effect (in words) ([2]; 0.1 mg/kg, p<0.05, Dunnett's test) |
| --- | --- | --- | --- | --- | --- | --- | --- | --- | --- | --- | --- | --- | --- | --- | --- |
| C[C@@H]1C[C@H]2[C@@H]3CCC4=CC(=O)C=C[C@]4(C)[C@@]3(F)[C@@H](O)C[C@]2(C)[C@H]1C(=O)COC(=O)/C=C/c1ccccc1 [Cmpnd. I, Deoxymethasone 21-cinnamic ester] | 7.7 ± 3.7 | 43 | 3.9 ± 2.9 | 71 | 2.3 ± 1.3 | 83 | strong, local antiinflammatory effect | does not | 0.40 ± 0.06 | 0.39 ± 0.12 | practically without effect | 0.46 ± 0.12 | 0.32 ± 0.05 | 3-10 | – |
| C[C@@H]1C[C@H]2[C@@H]3CCC4=CC(=O)C=C[C@]4(C)[C@@]3(F)[C@@H](O)C[C@]2(C)[C@H]1C(=O)CO [Deoxymethasone, 9α-fluoro-16α-methyl-1(2)-dehydrocorticosterone] | 8.6 ± 3.1 | 36 | 3.9 ± 3.0 | 71 | 2.8 ± 2.3 | 79 | – | significant effect | 0.28 | 0.23 ± 0.09 | almost completely inhibits the inflammation | 0.17 | 0.03 ± 0.03 | – | already exhibits this undesirable effect |
